Results taken from ChEMBL document CHEMBL1130742, “Inhibition of thermolysin with nitrone-bearing substrate analogs: a new type of thermolysin inhibitors” (Bioorg Med Chem Lett, 1998).

Each molecule was assayed against T1, Thermolysin (Bacillus thermoproteolyticus, UniProt P00800) (assay: Inhibitory activity against thermolysin using 2-furylacryloyl-Gly-Leu-NH2 as substrate at pH 7.2).
T1 sequence (P00800 whole entry): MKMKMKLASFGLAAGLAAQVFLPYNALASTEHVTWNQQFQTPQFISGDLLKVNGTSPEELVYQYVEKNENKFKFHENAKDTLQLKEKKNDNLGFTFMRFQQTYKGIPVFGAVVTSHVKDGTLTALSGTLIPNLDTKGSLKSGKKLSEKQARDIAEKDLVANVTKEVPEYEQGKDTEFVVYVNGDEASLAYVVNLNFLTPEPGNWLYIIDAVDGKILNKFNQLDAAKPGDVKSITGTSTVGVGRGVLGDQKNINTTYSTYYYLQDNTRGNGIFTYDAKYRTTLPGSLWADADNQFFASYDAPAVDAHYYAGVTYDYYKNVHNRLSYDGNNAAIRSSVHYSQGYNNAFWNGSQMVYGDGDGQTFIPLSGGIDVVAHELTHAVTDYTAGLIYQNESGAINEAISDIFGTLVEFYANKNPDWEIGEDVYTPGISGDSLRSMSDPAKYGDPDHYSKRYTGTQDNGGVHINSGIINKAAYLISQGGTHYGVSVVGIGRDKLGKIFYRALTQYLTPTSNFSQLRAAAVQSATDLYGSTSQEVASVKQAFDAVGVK

| SMILES | Ki |
| --- | --- |
| O=C(O)CNC(=O)C(CC(=O)O)Cc1ccccc1 (stereo not drawn) | 340 µM |
| NC(=O)C(/C=[N+](\[O-])Cc1ccccc1)Cc1ccccc1 (stereo not drawn) | 40 µM |
| O=C(O)CNC(=O)C(/C=[N+](\[O-])Cc1ccccc1)Cc1ccccc1 (stereo not drawn) | 54 µM |
| NC(=O)C(Cc1ccccc1)/[N+]([O-])=C/c1ccccc1 (stereo not drawn) | 774 µM |
| COC(=O)C(/C=[N+](\[O-])Cc1ccccc1)Cc1ccccc1 (stereo not drawn) | 82 µM |

The remaining molecules from weak to strong by Ki, led by results:

| Ki | SMILES |
| --- | --- |
| 1910 µM | COC(=O)C(Cc1ccccc1)/[N+]([O-])=C/c1ccccc1 (stereo not drawn) |
| 244 µM | COC(=O)C(Cc1ccccc1)C/[N+]([O-])=C/c1ccccc1 (stereo not drawn) |
| 34 µM | O=CN(O)CC(Cc1ccccc1)C(=O)NCC(=O)O (stereo not drawn) |
